Reference: patent US20250122223A1, “HETEROCYCLIC COMPOUNDS AS UBIQUITIN SPECIFIC PROTEASE 7 INHIBITORS” (ALMAC DISCOVERY LIMITED, priority 2022, published 2025)
Where two headings read alike, the source gives them in different places.

Target: USP7 (Homo sapiens (Human), UniProt Q93009)
Assay: USP7 fluorescence polarisation (FP) assay with ubiquitin-Lys-TAMRA substrate
Assay type: biochemical
Conditions: biochemical inhibition
[1] = read-out: USP7 IC50 activity (Table 3a, classes)
[2] = unit not given in Table 3b (Table 1 and key of Table 3a use μM), read-out: USP7 IC50 activity (Table 3b)

USP7, sequence (Q93009 whole entry): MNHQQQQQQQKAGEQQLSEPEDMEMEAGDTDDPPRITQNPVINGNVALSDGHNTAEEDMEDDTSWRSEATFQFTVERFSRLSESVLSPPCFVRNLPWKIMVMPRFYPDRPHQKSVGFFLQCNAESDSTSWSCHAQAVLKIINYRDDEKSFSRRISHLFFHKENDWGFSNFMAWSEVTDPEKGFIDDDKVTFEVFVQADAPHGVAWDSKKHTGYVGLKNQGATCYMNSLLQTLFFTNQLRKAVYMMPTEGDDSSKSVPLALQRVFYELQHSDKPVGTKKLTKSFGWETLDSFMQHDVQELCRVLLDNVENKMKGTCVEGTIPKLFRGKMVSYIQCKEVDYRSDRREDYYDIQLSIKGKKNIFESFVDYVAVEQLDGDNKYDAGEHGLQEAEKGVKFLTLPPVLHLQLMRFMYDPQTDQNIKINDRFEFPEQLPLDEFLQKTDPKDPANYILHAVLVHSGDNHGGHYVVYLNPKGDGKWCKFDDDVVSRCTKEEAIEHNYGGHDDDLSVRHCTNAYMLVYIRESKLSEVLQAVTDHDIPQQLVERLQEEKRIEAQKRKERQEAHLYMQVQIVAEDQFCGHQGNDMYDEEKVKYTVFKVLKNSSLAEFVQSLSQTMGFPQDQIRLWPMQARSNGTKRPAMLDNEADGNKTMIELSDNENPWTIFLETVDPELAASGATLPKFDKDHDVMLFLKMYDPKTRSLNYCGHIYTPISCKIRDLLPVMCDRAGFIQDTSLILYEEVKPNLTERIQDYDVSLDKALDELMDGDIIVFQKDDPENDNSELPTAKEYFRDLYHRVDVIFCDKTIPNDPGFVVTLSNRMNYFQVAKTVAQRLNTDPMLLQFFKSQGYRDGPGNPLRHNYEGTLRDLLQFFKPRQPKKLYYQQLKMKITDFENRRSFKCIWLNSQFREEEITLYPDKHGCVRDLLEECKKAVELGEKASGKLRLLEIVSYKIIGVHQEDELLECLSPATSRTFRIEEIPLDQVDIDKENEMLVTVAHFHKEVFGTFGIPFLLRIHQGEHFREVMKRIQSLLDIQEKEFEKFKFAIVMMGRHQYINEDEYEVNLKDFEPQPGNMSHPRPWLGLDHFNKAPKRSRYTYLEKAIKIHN

Row | SMILES | IC50 [1] | IC50 [2]
1 | CC1(C)CN[C@H](c2ccc(-n3c(Cl)cc4c(=O)n(CC5(O)CCN(C(=O)c6ccc(Cl)cc6)CC5)cnc43)cc2)CO1 (single isomer, unassigned) [Example 34] | < 0.1 µM | 0.088 µM
2 | C[C@H]1CN[C@H](c2ccc(-n3c(Cl)cc4c(=O)n(CC5(O)CCN(C(=O)C6(C7CC7)CC6)CC5)cnc43)cc2)CO1 [Example 42, 3-((1-([1,1′-Bi(cyclopropane)]-1-carbonyl)-4-hydroxypiperidin-4-yl)methyl)-6-chloro-7-(4-((3R,6S)-6-methylmorpholin-3-yl)phenyl)-3,7-dihydro-4H-pyrrolo[2,3-d]pyrimidin-4-one] | < 0.1 µM | 0.091 µM
3 | C[C@H]1CN[C@H](c2ccc(-n3ccc4c(=O)n(CC5(O)CCN(C(=O)c6ccc(Cl)cc6)CC5)cnc43)cc2)CO1 (racemic) [Example 17, rac-3-((1-(4-Chlorobenzoyl)-4-hydroxypiperidin-4-yl)methyl)-7-(4-((3R,6S)-6-methylmorpholin-3-yl)phenyl)-3,7-dihydro-4H-pyrrolo[2,3-d]pyrimidin-4-one] | 0.1 to 0.25 µM | 0.175 µM
4 | C[C@@H]1CN[C@@H](c2ccc(-n3c(Cl)cc4c(=O)n(CC5(O)CCN(C(=O)c6ccc(Cl)cc6)CC5)cnc43)cc2)CO1 [Example 11, 6-Chloro-3-((1-(4-chlorobenzoyl)-4-hydroxypiperidin-4-yl)methyl)-7-(4-((3S,6R)-6-methylmorpholin-3-yl)phenyl)-3,7-dihydro-4H-pyrrolo[2,3-d]pyrimidin-4-one] | < 0.1 µM | 0.08 µM
5 | C[C@@H]1COC[C@H](c2ccc(-n3c(Cl)cc4c(=O)n(CC5(O)CCN(C(=O)c6ccc(Cl)cc6)CC5)cnc43)cc2)N1 (single isomer, unassigned) [Example 27] | 0.1 to 0.25 µM | 0.194 µM
6 | CC[C@H]1CN[C@H](c2ccc(-n3c(Cl)cc4c(=O)n(CC5(O)CCN(C(=O)c6ccc(F)cc6)CC5)cnc43)cc2)CO1 [Example 45, 6-Chloro-7-(4-((3R,6S)-6-ethylmorpholin-3-yl)phenyl)-3-((1-(4-fluorobenzoyl)-4-hydroxypiperidin-4-yl)methyl)-3,7-dihydro-4H-pyrrolo[2,3-d]pyrimidin-4-one] | 0.1 to 0.25 µM | 0.176 µM
7 | C[C@H]1CN[C@H](c2ccc(-n3c(Cl)cc4c(=O)n(CC5(O)CCN(C(=O)c6cccc(Cl)c6)CC5)cnc43)cc2)CO1 [Example 35, 6-Chloro-3-((1-(3-chlorobenzoyl)-4-hydroxypiperidin-4-yl)methyl)-7-(4-((3R,6S)-6-methylmorpholin-3-yl)phenyl)-3,7-dihydro-4H-pyrrolo[2,3-d]pyrimidin-4-one] | 0.1 to 0.25 µM | 0.224 µM
8 | C[C@H]1COC[C@@H](c2ccc(-n3c(Cl)cc4c(=O)n(CC5(O)CCN(C(=O)C6(C)CC6)CC5)cnc43)cc2)N1 (racemic) [Example 2, rac-6-Chloro-3-((4-hydroxy-1-(1-methylcyclopropane-1-carbonyl)piperidin-4-yl)methyl)-7-(4-((3R,5S)-5-methylmorpholin-3-yl)phenyl)-3,7-dihydro-4H-pyrrolo[2,3-d]pyrimidin-4-one] | < 0.1 µM | 0.046 µM
9 | O=C(c1ccc(Cl)cc1)N1CCC(O)(Cn2cnc3c(cc(Cl)n3-c3ccc([C@@H]4CO[C@@H](C(F)(F)F)CN4)cc3)c2=O)CC1 (racemic) [Example 9, rac-6-Chloro-3-((1-(4-chlorobenzoyl)-4-hydroxypiperidin-4-yl)methyl)-7-(4-((3R,6R)-6-(trifluoromethyl)morpholin-3-yl)phenyl)-3,7-dihydro-4H-pyrrolo[2,3-d]pyrimidin-4-one] | 0.25 to 2 µM | 0.42 µM
10 | C[C@H]1CN[C@H](c2ccc(-n3c(Cl)cc4c(=O)n(CC5(O)CCN(C(=O)c6ccc(Cl)cc6F)CC5)cnc43)cc2)CO1 [Example 30, 6-Chloro-3-((1-(4-chloro-2-fluorobenzoyl)-4-hydroxypiperidin-4-yl)methyl)-7-(4-((3R,6S)-6-methylmorpholin-3-yl)phenyl)-3,7-dihydro-4H-pyrrolo[2,3-d]pyrimidin-4-one] | 0.1 to 0.25 µM | 0.164 µM
11 | C[C@@H]1CN[C@@H](c2ccc(-n3c(Cl)cc4c(=O)n(CC5(O)CCN(C(=O)c6ccccc6)CC5)cnc43)cc2)CO1 [Example 24, 3-((1-Benzoyl-4-hydroxypiperidin-4-yl)methyl)-6-chloro-7-(4-((3S,6R)-6-methylmorpholin-3-yl)phenyl)-3,7-dihydro-4H-pyrrolo[2,3-d]pyrimidin-4-one] | 0.1 to 0.25 µM | 0.25 µM

Continued, values first:

Row | IC50 [1] | IC50 [2] | SMILES
12 | < 0.1 µM | 0.079 µM | CC1(C(=O)N2CCC(O)(Cn3cnc4c(cc(Cl)n4-c4ccc([C@@H]5CO[C@@H](C6CC6)CN5)cc4)c3=O)CC2)CC1 [Example 100, 6-Chloro-7-(4-((3R,6S)-6-cyclopropylmorpholin-3-yl)phenyl)-3-((4-hydroxy-1-(1-methylcyclopropane-1-carbonyl)piperidin-4-yl)methyl)-3,7-dihydro-4H-pyrrolo[2,3-d]pyrimidin-4-one]
13 | 0.1 to 0.25 µM | 0.182 µM | C[C@@H]1CN[C@@H](c2ccc(-n3c(Cl)cc4c(=O)n(CC5(O)CCN(C(=O)[C@@]6(C)C[C@@H]6C(F)(F)F)CC5)cnc43)cc2)CO1 [Example 109, 6-Chloro-3-((4-hydroxy-1-((1S,2S)-1-methyl-2-(trifluoromethyl)cyclopropane-1-carbonyl)piperidin-4-yl)methyl)-7-(4-((3S,6R)-6-methylmorpholin-3-yl)phenyl)-3,7-dihydro-4H-pyrrolo[2,3-d]pyrimidin-4-one]
14 | < 0.1 µM | 0.041 µM | O=C(N1CCC(O)(Cn2cnc3c(cc(Cl)n3-c3ccc([C@@H]4COCCN4)cc3)c2=O)CC1)C1(C2CC2)CC1 (single isomer, unassigned) [Example 80]
15 | 0.25 to 2 µM | 0.586 µM | C[C@@H]1CN[C@H](c2ccc(-n3c(Cl)cc4c(=O)n(CC5(O)CCN(C(=O)c6ccc(Cl)cc6)CC5)cnc43)cc2)CO1 (single isomer, unassigned) [Example 69]
16 | 0.1 to 0.25 µM | 0.204 µM | Cc1cc(Cl)ccc1C(=O)N1CCC(O)(Cn2cnc3c(cc(Cl)n3-c3ccc([C@H]4CO[C@H](C)CN4)c(C)c3)c2=O)CC1 [Example 89, 6-Chloro-3-((1-(4-chloro-2-methylbenzoyl)-4-hydroxypiperidin-4-yl)methyl)-7-(3-methyl-4-((3S,6R)-6-methylmorpholin-3-yl)phenyl)-3,7-dihydro-4H-pyrrolo[2,3-d]pyrimidin-4-one]
17 | 0.25 to 2 µM | 0.414 µM | Cc1ccc(C(=O)N2CCC(O)(Cn3cnc4c(cc(Cl)n4-c4ccc([C@H]5CO[C@H](C)CN5)c(C)c4)c3=O)CC2)c(C)c1 [Example 58, 6-Chloro-3-((1-(2,4-dimethylbenzoyl)-4-hydroxypiperidin-4-yl)methyl)-7-(3-methyl-4-((3S,6R)-6-methylmorpholin-3-yl)phenyl)-3,7-dihydro-4H-pyrrolo[2,3-d]pyrimidin-4-one]
18 | < 0.1 µM | 0.057 µM | C[C@H]1CN[C@H](c2ccc(-n3c(Cl)cc4c(=O)n(CC5(O)CCN(C(=O)C6(C)CC6)CC5)cnc43)cc2)CO1 [Example 101, 6-Chloro-3-((4-hydroxy-1-(1-methylcyclopropane-1-carbonyl)piperidin-4-yl)methyl)-7-(4-((3R,6S)-6-methylmorpholin-3-yl)phenyl)-3,7-dihydro-4H-pyrrolo[2,3-d]pyrimidin-4-one]
19 | < 0.1 µM | 0.258 µM | Cc1cc(-n2c(Cl)cc3c(=O)n(CC4(O)CCN(C(=O)c5cccc(Cl)c5)CC4)cnc32)ccc1[C@H]1CO[C@H](C)CN1 [Example 51, 6-Chloro-3-((1-(3-chlorobenzoyl)-4-hydroxypiperidin-4-yl)methyl)-7-(3-methyl-4-((3S,6R)-6-methylmorpholin-3-yl)phenyl)-3,7-dihydro-4H-pyrrolo[2,3-d]pyrimidin-4-one]
20 | 0.25 to 2 µM | 0.702 µM | C[C@H]1CN[C@@H](c2ccc(-n3c(Cl)cc4c(=O)n(CC5(O)CCN(C(=O)c6ccc(Cl)cc6)CC5)cnc43)cc2)CO1 (single isomer, unassigned) [Example 68]
21 | < 0.1 µM | 0.05 µM | C[C@H]1CN[C@H](c2ccc(-n3c(Cl)cc4c(=O)n(CC5(O)CCN(C(=O)C6(C)CCC6)CC5)cnc43)cc2)CO1 [Example 102, 6-Chloro-3-((4-hydroxy-1-(1-methylcyclobutane-1-carbonyl)piperidin-4-yl)methyl)-7-(4-((3R,6S)-6-methylmorpholin-3-yl)phenyl)-3,7-dihydro-4H-pyrrolo[2,3-d]pyrimidin-4-one]
22 | < 0.1 µM | 0.094 µM | CC1(C(=O)N2CCC(O)(Cn3cnc4c(cc(Cl)n4-c4ccc([C@@H]5COCCN5)cc4)c3=O)CC2)CC1 (single isomer, unassigned) [Example 71]
23 | 0.25 to 2 µM | 0.545 µM | Cc1ccc(C(=O)N2CCC(O)(Cn3cnc4c(cc(Cl)n4-c4ccc([C@@H]5CO[C@@H](C)CN5)cc4)c3=O)CC2)c(C)c1 [Example 59, 6-Chloro-3-((1-(2,4-dimethylbenzoyl)-4-hydroxypiperidin-4-yl)methyl)-7-(4-((3R,6S)-6-methylmorpholin-3-yl)phenyl)-3,7-dihydro-4H-pyrrolo[2,3-d]pyrimidin-4-one]
24 | 0.1 to 0.25 µM | 0.223 µM | O=C(N1CCC(O)(Cn2cnc3c(cc(Cl)n3-c3ccc([C@@H]4NC[C@@H]5CC[C@H]4O5)cc3)c2=O)CC1)C1(C2CC2)CC1 [Example 49, 7-(4-((1R,2S,5S)-8-Oxa-3-azabicyclo[3.2.1]octan-2-yl)phenyl)-3-((1-([1,1′-bi(cyclopropane)]-1-carbonyl)-4-hydroxypiperidin-4-yl)methyl)-6-chloro-3,7-dihydro-4H-pyrrolo[2,3-d]pyrimidin-4-one]
25 | 0.1 to 0.25 µM | 0.211 µM | CC1(C(=O)N2CCC(O)(Cn3cnc4c(cc(Cl)n4-c4ccc(C5COCCN5)c(F)c4)c3=O)CC2)CC1 (centres unmarked) [Example 72, 6-Chloro-7-(3-fluoro-4-(morpholin-3-yl)phenyl)-3-((4-hydroxy-1-(1-methylcyclopropane-1-carbonyl)piperidin-4-yl)methyl)-3,7-dihydro-4H-pyrrolo[2,3-d]pyrimidin-4-one]
